The source made the active and inactive calls.
How the values were obtained:
[1] = microbe, parasite or virus in culture; format: functional; settings: Mycobacterium tuberculosis
Estrogen receptor = target: T1, Estrogen receptor (Homo sapiens, UniProt P03372);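 also: potency for inhibiting coactivator peptide recruitment to the receptor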
T1 sequence (P03372 whole entry): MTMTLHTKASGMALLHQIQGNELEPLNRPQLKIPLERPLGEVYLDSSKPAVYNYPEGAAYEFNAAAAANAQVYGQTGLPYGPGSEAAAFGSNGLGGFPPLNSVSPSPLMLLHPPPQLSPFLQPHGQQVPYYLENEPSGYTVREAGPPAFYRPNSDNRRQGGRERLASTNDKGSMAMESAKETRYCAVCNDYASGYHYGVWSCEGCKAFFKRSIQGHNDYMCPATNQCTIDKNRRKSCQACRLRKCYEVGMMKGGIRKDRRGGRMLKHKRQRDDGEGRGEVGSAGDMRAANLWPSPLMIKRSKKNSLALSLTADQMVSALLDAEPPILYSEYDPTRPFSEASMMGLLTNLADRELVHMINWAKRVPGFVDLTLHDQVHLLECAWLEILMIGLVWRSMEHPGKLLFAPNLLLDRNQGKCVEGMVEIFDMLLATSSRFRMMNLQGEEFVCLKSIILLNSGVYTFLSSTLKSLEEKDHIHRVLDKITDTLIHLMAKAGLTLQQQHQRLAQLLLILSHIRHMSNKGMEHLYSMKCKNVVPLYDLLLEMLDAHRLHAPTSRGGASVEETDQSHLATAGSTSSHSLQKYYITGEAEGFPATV

[2] = inhibitors of HIV Env-driven cell fusion, dose response, cherry-pick (AID 652057); format: functional, cell-based
[3] = off-target signal loss in HeLa-CEM21 co-culture – HeLa F-luc CTL cells, cherry-picked, counter-screen for HIV-1 Env fusion inhibitor project, dose response (AID 652040); format: functional, cell-based;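 also: potency for signal decrease marking cytotoxic or nonspecific inhibition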
[4] = ZM109 Env clade C HIV-1 fusion inhibitors, dose response, HeLa effector, CEM target cells, luciferase, cherry-pick (AID 652058); format: functional, cell-based
[5] = inhibitors of clade B AD8 Env fusion, dose response, cell-based, cherry-pick (AID 652062); format: functional;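 also: luciferase signal from cell-cell fusion driven by HIV-1 clade B AD8 Env; potency is for inhibitors of fusion seen as a drop in luminescence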
Cytochrome P450 1A2 = target: T2, Cytochrome P450 1A2 (Homo sapiens, UniProt P05177);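 also: PubChem cytochrome P450 panel assay, CYP1A2 panel member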
T2 sequence (P05177 whole entry): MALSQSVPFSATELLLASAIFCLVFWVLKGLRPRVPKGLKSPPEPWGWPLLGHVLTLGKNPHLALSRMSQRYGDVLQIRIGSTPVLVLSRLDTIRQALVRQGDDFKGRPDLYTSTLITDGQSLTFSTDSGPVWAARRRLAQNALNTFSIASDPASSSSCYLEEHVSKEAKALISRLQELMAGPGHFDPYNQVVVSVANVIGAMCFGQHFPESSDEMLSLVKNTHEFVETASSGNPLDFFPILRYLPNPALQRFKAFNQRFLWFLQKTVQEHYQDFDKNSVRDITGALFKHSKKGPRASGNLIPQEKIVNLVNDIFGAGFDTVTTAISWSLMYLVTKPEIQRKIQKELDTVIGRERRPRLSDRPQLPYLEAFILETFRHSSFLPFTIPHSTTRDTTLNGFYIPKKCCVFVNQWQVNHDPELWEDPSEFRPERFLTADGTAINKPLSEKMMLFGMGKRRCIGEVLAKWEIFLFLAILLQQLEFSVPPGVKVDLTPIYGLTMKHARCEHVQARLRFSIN

[6] = target: T3, Calpain-2 catalytic subunit (Sus scrofa, UniProt P43367); experiment: pig calpain II inhibitor potency, dose response, biochemical, fluorogenic peptide substrate (AID 1420); format: functional
T3 sequence (P43367 whole entry): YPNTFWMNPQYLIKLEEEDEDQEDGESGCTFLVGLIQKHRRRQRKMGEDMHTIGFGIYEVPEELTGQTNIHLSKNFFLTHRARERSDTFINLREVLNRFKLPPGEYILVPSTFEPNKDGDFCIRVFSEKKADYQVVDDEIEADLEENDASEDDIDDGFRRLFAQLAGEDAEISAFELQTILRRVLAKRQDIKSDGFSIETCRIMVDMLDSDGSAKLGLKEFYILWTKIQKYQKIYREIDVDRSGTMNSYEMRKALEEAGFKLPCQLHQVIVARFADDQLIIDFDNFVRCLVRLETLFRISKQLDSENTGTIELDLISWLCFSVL

[7] = target: T4, Ubiquitin-conjugating enzyme E2 N (Homo sapiens, UniProt P61088); format: functional;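 also: Dose-response confirmation in a TR-FRET assay detecting UBC13-driven polyubiquitin chain formation, inhibition measured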
T4 sequence (P61088 whole entry): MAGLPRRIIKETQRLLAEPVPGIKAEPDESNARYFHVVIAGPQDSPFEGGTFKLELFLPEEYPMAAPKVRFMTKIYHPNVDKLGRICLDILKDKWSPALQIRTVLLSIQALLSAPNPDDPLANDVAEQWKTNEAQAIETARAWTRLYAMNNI

Prothrombin = Prothrombin (Homo sapiens, UniProt P00734); experiment: Thrombin 1536 HTS Dose Response Confirmation. [Related pubchem assays: 1046 (Thrombin 1536 HTS; hits were confirmed in this assay)]; format: functional
[8] = cytotoxicity toward NIH3T3 fibroblasts, dose response, counter-screen, cell-based, ATP luminescence, mouse fibroblasts (AID 2010); format: functional;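 also: cells exposed to compound for about 90 hours before reading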
[9] = inhibitors of intracellular T. cruzi replication, confirmation, NIH3T3 host cells, beta-gal luminescence (AID 2044); format: functional, cell-based;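 also: intracellular parasites grown in NIH/3T3 mouse fibroblasts as host cells; luminescent beta-galactosidase reporter signal from transgenic T. cruzi replicating inside host cells; inhibitors lower the luminescence signal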
[10] = HEp-2 cell cytotoxicity, dose response, cytotoxicity control for RSV inhibitor project, HTS (AID 2410); format: functional; settings: human respiratory syncytial virus
[11] = tested on: Streptococcus sp. 'group A'; experiment: growth inhibition of control SK(-) GAS strain, dose response, counter-screen for streptokinase expression inhibitor project, luminescence, kanamycin, BacTiterGlo, confirmation (AID 1900); format: functional, organism-based
Streptococcus = experiment: Group A Streptococcus viability loss, dose response, counter-screen for streptokinase expression inhibitor project, luminescence, BacTiterGlo (AID 1915); format: functional, organism-based;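 also: potency for reduction of bacterial viability or growth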
INS1 = experiment: beta cell apoptosis inhibitors, cytokine rescue, dose response, luminescence, retest (AID 449756); format: functional, cell-based; settings: Rattus norvegicus;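 also: cell death triggered by IL-1 beta plus TNF-alpha plus IFN-gamma mixture; protective hits raise ATP signal compared with cytokine alone wells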
Cytochrome P450 2C9 = Cytochrome P450 2C9 (Homo sapiens, UniProt P11712)
[12] = cytotoxicity toward DRD oncogenic fibroblasts, dose response, cell-based, non-viral oncogenic, luminescence (AID 1934); format: functional; settings: Homo sapiens
BJ [13] = experiment: cells; format: functional, cell-based; settings: Homo sapiens
BJ [14] = experiment: cytotoxicity toward BJ-TERT-LT-ST fibroblasts, dose response, cell-based, RAS-independent, luminescence (AID 1935); format: functional; settings: Homo sapiens;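 also: BJ fibroblasts immortalized with TERT plus LT and ST oncogenes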
BJ [15] = experiment: cytotoxicity toward BJ-TERT fibroblasts, dose response, cell-based, RAS-independent, luminescence (AID 1933); format: functional; settings: Homo sapiens
Protein RecA = target: T5, Protein RecA (Mycobacterium tuberculosis, UniProt P9WHJ3); experiment: Fluorescence Cell-Free Homogeneous Dose Retest to Identify Inhibitors of RecA-Intein Splicing Activity. [Related pubchem assays (depositor defined):AID2097, AID2223, AID489010, AID492950]; format: functional
T5 sequence (P9WHJ3 whole entry): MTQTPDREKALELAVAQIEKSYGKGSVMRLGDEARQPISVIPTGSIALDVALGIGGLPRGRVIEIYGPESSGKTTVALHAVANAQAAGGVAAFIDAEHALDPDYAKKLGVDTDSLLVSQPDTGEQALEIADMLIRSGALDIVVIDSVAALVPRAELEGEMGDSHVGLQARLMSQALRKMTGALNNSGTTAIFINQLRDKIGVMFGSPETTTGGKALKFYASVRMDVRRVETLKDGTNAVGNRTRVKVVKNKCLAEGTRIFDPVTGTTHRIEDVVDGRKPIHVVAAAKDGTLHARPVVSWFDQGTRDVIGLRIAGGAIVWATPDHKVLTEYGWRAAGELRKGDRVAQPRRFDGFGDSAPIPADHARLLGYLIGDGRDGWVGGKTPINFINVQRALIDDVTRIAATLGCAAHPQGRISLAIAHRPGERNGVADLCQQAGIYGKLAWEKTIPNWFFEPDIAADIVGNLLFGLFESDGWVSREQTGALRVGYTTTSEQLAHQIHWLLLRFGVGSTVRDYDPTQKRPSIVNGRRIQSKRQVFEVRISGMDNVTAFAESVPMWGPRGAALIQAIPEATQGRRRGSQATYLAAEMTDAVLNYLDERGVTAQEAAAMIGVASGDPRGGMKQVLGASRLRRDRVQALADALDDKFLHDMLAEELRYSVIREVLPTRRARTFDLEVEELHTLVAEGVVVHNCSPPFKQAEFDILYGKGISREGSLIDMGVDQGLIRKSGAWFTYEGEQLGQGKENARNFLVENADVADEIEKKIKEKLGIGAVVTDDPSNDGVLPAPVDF

[16] = target: T6, Replicative DNA helicase DnaB (Mycobacterium tuberculosis, UniProt P9WMR3); experiment: DnaB intein splicing inhibitors, dose response, biochemical, cell-free fluorescence (AID 449749); format: functional
T6 sequence (P9WMR3 whole entry): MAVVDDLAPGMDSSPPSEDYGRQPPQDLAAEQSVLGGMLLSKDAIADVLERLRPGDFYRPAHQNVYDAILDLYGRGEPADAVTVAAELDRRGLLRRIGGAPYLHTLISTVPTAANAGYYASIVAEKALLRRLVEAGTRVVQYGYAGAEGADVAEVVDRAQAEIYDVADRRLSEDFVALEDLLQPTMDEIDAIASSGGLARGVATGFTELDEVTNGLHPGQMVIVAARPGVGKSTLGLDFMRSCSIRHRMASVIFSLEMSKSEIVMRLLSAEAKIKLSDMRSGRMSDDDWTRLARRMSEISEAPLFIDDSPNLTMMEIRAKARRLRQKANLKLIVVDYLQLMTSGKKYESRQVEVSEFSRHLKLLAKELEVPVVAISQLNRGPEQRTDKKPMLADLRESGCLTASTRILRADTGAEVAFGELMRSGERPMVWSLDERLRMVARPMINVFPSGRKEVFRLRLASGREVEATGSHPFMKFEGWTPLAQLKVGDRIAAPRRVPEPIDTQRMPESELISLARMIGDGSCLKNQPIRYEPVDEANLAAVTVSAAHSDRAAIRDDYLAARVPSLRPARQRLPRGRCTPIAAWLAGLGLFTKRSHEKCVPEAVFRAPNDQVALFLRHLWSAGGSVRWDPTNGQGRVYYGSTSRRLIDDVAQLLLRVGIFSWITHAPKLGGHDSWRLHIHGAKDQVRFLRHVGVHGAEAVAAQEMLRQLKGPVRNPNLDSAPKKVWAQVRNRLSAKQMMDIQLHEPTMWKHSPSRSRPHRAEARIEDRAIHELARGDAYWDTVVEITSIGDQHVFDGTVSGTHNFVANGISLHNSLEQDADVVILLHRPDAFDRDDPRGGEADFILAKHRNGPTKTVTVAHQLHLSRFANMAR

Cytochrome P450 2C9, sequence (P11712 whole entry): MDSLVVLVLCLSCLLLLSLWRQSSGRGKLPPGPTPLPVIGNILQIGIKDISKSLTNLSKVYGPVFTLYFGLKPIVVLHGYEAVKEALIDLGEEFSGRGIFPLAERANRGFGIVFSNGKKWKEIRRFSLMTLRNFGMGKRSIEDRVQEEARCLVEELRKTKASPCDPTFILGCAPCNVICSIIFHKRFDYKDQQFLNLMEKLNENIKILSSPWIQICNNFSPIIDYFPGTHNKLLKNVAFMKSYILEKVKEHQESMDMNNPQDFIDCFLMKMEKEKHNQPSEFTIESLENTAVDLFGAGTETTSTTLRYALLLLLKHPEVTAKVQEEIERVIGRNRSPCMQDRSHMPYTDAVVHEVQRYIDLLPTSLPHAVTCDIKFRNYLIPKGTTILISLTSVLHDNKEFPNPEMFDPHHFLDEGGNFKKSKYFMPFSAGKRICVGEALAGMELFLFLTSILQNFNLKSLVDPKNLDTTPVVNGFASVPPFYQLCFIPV

Compound: COc1cc(NC(=O)c2cccs2)c(C(=O)OCC(=O)NCc2ccco2)cc1OC
- CC50 [1]: > 40 µM (active)
- IC50 (Estrogen receptor): 14.8 µM (active)

Compound: Cc1ccc(-c2csc3nc4c5ccccc5c(NCCCN5CCOCC5)nn4c(=O)c23)cc1
- CC50 [1]: 13.6 µM (active)

Compound: Cn1c(=O)n(-c2cccc(Cl)c2)c(=O)c2c3c(sc21)COC(C)(C)C3
- AC50 [2]: 3.65 µM (active)
- AC50 [3]: 6.71 µM (active)
- AC50 [4]: 3.36 µM (active)
- AC50 [5]: 1.37 µM (active)
- AC50 (Cytochrome P450 1A2): 14.1 µM (inconclusive)

Compound: COc1cccc(C(=O)N2c3ccccc3Sc3ccccc32)c1
- IC50 [6]: 6.88 µM (not active)

Compound: Cc1cccc(NS(=O)(=O)c2ccc(C(=O)N3CCN(c4ccccc4O)CC3)cc2)c1C
- CC50 [1]: 36.6 µM (active)

Compound: NC(=O)CCn1c(C(=O)c2cc(Cl)c(N)c(Cl)c2)c2ccccc2[n+]1[O-]
- IC50 [7]: > 20 µM (inactive)

Compound: CCOc1ccc(N2C(=O)C3C(c4ccccc4)=NN(c4ccccc4)C3C2=O)cc1 (stereo not drawn)
- IC50 [7]: > 20 µM (inactive)

Compound: Cc1cc(C)cc(OCC(=O)NNC(=O)CN2C(=O)c3ccccc3C2=O)c1
- IC50 (Prothrombin): > 50 µM (not active)

Compound: CCC(C(=O)OCC(=O)Nc1ccc(SC(F)F)cc1)c1ccccc1 (stereo not drawn)
- EC50 [8]: > 60 µM (not active)
- IC50 (Prothrombin): > 50 µM (not active)
- IC50 [6]: 7.17 µM (not active)
- EC50 [9]: 1.68 µM (active)

Compound: COc1ccc2cc(C(=O)N3CCCCCC3)sc(=O)c2c1OC
- IC50 [6]: 11.1 µM (active)

Compound: CC(C)c1ccc(NC(S)=Nc2ccc3c[nH]nc3c2)cc1
- CC50 [10]: 37.9 µM (active)
- IC50 (Prothrombin): 2.49 µM (active)

Compound: N=C(NNC(=O)c1sccc1OCc1ccc(Cl)cc1Cl)c1ccccn1
- CC50 [1]: 6.31 µM (active)
- EC50 [11]: 3.89 µM (active)
- EC50 (Streptococcus): > 150 µM (not active)
- AC50 (INS1): 5.2 µM (active)

Compound: C=CCn1c(SCc2c(C)noc2C)nc2cc(C(=O)O)ccc2c1=O
- IC50 (Prothrombin): > 50 µM (not active)

Compound: CNC[C@H](Cc1cccc2ccccc12)NC[C@H](CCSC)NCC1CCC(C(C)(C)C)CC1 (stereo partly drawn)
- CC50 [1]: 25.4 µM (active)

Compound: CCC(CC)NC(=O)COC(=O)c1ccc(OCC(=O)Nc2ccccc2OC)c(OC)c1
- IC50 [6]: 18.5 µM (not active)

Compound: CCCc1cnc(NCCNCC(O)COc2ccc(Cl)c(Cl)c2)nc1 (stereo not drawn)
- CC50 [1]: 22.1 µM (active)

Compound: CC(C)c1onc(C(=O)Nc2cccc(Cl)c2)c1[N+](=O)[O-]
- IC50 [6]: 2.32 µM (not active)

Compound: CCc1nc2ccccc2c(C(=O)OCC(=O)C(C)(C)C)c1C
- IC50 (Prothrombin): > 50 µM (not active)

Compound: CC[C@H](C)[C@@H](CN[C@H](C)CNC)NCCC(c1ccccc1)c1ccccc1
- IC50 [7]: > 20 µM (inactive)

Compound: Cc1ccc(C(=O)O)cc1N1C(=O)c2cccc3cc(Br)cc(c23)C1=O
- AC50 (Cytochrome P450 2C9): 15.8 µM (inconclusive)
- IC50 [6]: 7.36 µM (not active)

Compound: Cn1c(N)c(C(=O)COC(=O)CCC2CCCC2)c(=O)n(C)c1=O
- IC50 [6]: 15.5 µM (not active)

Compound: CCOC(=O)c1[nH]c(C)c(C(=O)c2ccc(C)cc2)c1C
- EC50 [12]: 3.16 µM (active)
- EC50 (BJ [13]): 23.5 µM (active)
- EC50 (BJ [14]): 27.4 µM (inconclusive)
- EC50 (BJ [15]): 3.19 µM (inconclusive)

Compound: O=c1c2c(-c3ccccc3)csc2ncn1/N=C/c1ccc(O)c([N+](=O)[O-])c1
- IC50 [6]: 9.57 µM (not active)

Compound: COc1ccccc1C(=O)n1nc(-c2ccco2)nc1N
- IC50 (Prothrombin): 6.93 µM (active)

Compound: Nc1nc(-c2ccco2)nn1C(=O)c1ccc(Cl)cc1
- EC50 (Protein RecA): 55.4 µM (active)
- AC50 [16]: 14 µM (active)
- IC50 (Prothrombin): 1.46 µM (active)
